Test results reported in US11491232B2, “Lactuloside compounds and preparation and use thereof” (Fruithy Holdings Limited, priority 2017, dated 2022).
Read-outs that look alike come from different tables or passages of the source.

Tests used:
colon flora = assay: Stability in the presence of colon flora (content in colon of rat); format: in vitro ADME, SD rat; details: male, Sprague-Dawley (SD), rat, 1 h, pH 6.8
Procedure: A phosphate buffer solution with a pH of 7.0 was formulated, and then CO2 was introduced to the solution to adjust the pH to 6.8. Then, the content in colon of a male SD rat (body weight: 180-220 g) was placed in a water bath at 37° C., and added into the phosphate buffer solution with a pH of 6.8 as prepared above under the protection of N2 to a concentration of 20% (w/v). The buffer solution was kept in an oxygen-free environment. Then, the test Compound 17 was added to the buffer solution, and the solution was stirred uniformly.
Supernatant was analyzed with HPLC, where the amount of each ingredient was calculated by normalization.
Note: in the above table, “T14.148 (%)” represents the percentage of peak area of the material with a retention time of 14.148 min “T14.713 (%)” represents the percentage of peak area of the material with a retention time of 14.713 min. “T16.392 (%)” represents the percentage of peak area of the material with a retention time of 16.392 min. “T22.624 (%)” represents the percentage of peak area of the material with a retention time of 22.624 min.
(§1) Other typical example compounds were tested for stability according to the above method, and the test results are shown in Table 8 below.

[1] = system: ulcerative colitis models of Wistar rat induced by enema with trinitrobenzenesulfonic acid (TNBS); assay: Pharmacodynamic effect of intragastric administration in ulcerative colitis models of Wistar rat induced by TNBS enema; format: in vivo; details: Wistar rats; for colon coefficient on Day 8 after modeling compared with the model control group / histopathological score of colon on Day 8 after modeling compared with the model control group / body weight change (increase) on Day 8 after modeling as compared to the model group: intragastric qd × 7, Compound 1 1.91 mg/kg; for colon coefficient on Day 8 after modeling compared with the model control group: prednisolone 1 mg/kg (FIG. 6); for histopathological score of colon on Day 8 after modeling compared with the model control group: prednisolone 1 mg/kg (FIG. 7); for body weight change (increase) on Day 8 after modeling as compared to the model group: prednisolone 1 mg/kg, only Compound 1 vs model significant (FIG. 5)
Procedure: Comparison research among therapeutic effects of Compound 1 and a commercial formulation of prednisolone (prednisolone tablet, produced by Wuhan Yuancheng Co-Creation Technology Co., Ltd.) on ulcerative colitis models of Wistar rats after intragastric administration was carried out to further evaluate the improvement in main therapeutic effect indexes of the intragastric perfusion therapy of Compound 1 and compare it with that of treatment group with equivalent moles of a commercial formulation of prednisolone, thereby providing pharmacodynamic support for further development of Compound 1.
According to the experiment, 40 male Wistar rats (180-220 grams) were purchased, and randomly divided into four groups (i.e., physiological saline control group, model control group, prednisolone group and Compound 1 group), and there were 10 animals in each group. Except the physiological saline control group, ulcerative colitis animal models were produced by once enema administration of a mixed solution of 2.5% TNBS-50% ethanol (containing 80 mg/kg TNBS) to experiment animals in other three groups in an amount of 3.2 ml/kg. For the physiological control group, physiological saline was once administered by enema in an amount of 3.2 ml/kg. At 24 h after the modeling administration, the corresponding solvent control or therapeutic drugs were administered by enema depending on animal groups (qd×7d (one dose per day, for 7 days)), and detailed grouping and administration information is as shown in Table 14 below.
During the investigation, the main indexes to be observed include: death of animals, clinical observation, body weight, colon coefficient, histopathological examination of animals, and so on. For each experiment group, on Day 8 after modeling, animals were sacrificed. Colon tissues were collected to calculate the colon coefficient (colon coefficient=colon weight (g)/animal body weight (g) * 100%).

[2] = Test on stability in mediums in vitro (buffer solutions with different pH, simulated intestinal fluid, simulated gastric fluid); format: physicochemical
Procedure: At 37° C., Compound 17 was incubated in different mediums (buffer solutions with different pH, a simulated intestinal fluid containing pancreatin, and simulated gastric fluid containing pepsin).
as §1

[3] = rat, in vivo; for Concentration of prednisolone in the content, The first half segment of Small intestine / Concentration of prednisolone in the content, The last half segment of Small intestine: male, Sprague-Dawley (SD)
Procedure: (§2) For the experiment animals of Group 1, Group 2 and Group 3, at each time point of 30 min, 1 h, 2 h, 3 h, 4 h, 5 h, 6 h, 8 h, and 10 h after the administration, 4 animals were randomly selected and sacrificed. The blood samples were collected, and the contents in the stomach and various segments of the intestine tract (the first half segment of the small intestine, the last half segment of the small intestine, the first third segment of the colon (including cecum), and the last two thirds segment of the colon) were weighed. […] 4 animals of Group 4 were sacrificed at the time point of 10 h. The blood samples and the contents in various segments of the gastrointestinal tract were collected as blank control.

[4] = Systemic pharmacokinetics (plasma) after oral administration to SD rats; format: in vivo
Procedure: as §2

[5] = Simulated intestinal fluid (containing pancreatin) (pH 6.8) (8 h)
[6] = intragastric administration, FIG. 3

C[C@]12C=CC(=O)C=C1CC[C@@H]1[C@@H]2[C@@H](O)C[C@@]2(C)[C@H]1CC[C@]2(O)C(=O)COC1(CO)O[C@H](CO)[C@@H](O[C@@H]2O[C@H](CO)[C@H](O)[C@H](O)[C@H]2O)[C@@H]1O (stereo partly drawn) [Compound 1, (11β)-11,17-dihydroxyl-21-{[4-O-(β-D-galactopyranosyl)-D-fructofuranosyl]oxy}pregna-1,4-diene-3,20-dione]
Percentage of the example compound remaining (Composition, %) (colon flora): 22.1%
Percentage of the released active drug (prednisolone, dexamethasone, budesonide, apremilast or prucalopride) (Composition, %) (colon flora): 39.7%
day after modeling on which the body weight began to rise ([1]; TNBS model, intragastric qd × 7, 1.91 mg/kg): 4 days
colon coefficient on Day 8 after modeling compared with the model control group [1]: significantly lower than that for the model control group (p<0.05)
histopathological score of colon on Day 8 after modeling compared with the model control group [1]: significantly lower than that for the model control group (p<0.05)
body weight change (increase) on Day 8 after modeling as compared to the model group [1]: statistically significant
Percentage of the example compound remaining (Composition, %) [2, 5]: 99.0%
Percentage of the released active drug (prednisolone, dexamethasone, budesonide, apremilast or prucalopride) (Composition, %) [2, 5]: 0.2%
Percentage of the example compound remaining (Composition, %) ([2]; Water (pH 1.2) (2 h)): 30.4%
Percentage of the released active drug (prednisolone, dexamethasone, budesonide, apremilast or prucalopride) (Composition, %) ([2]; Water (pH 1.2) (2 h)): 67.2%
passage through the gastrointestinal tract of a mammal (absorption and hydrolysis) [3]: without being absorbed significantly by the gastrointestinal tract and hydrolyzed significantly by endogenous enzymes of a mammal host
factor of increase of maximum concentrations (Cmax) of local prednisolone in the cecum and colon sites as compared to prednisolone group ([3]; po): 65-360
total exposure (AUC) of local prednisolone in the cecum and colon sites compared with prednisolone group ([3]; po): much higher than the prednisolone (original form) group
plasma prednisolone Cmax as compared to free prednisolone group [4, 6]: very low
plasma prednisolone time to peak as compared to free prednisolone group [4, 6]: significantly delayed
concentration at 0.5 h ([4]; male, Sprague-Dawley, rat, plasma, oral, 9.55 mg/kg intragastric, 0.5 h (only time point with detection), read-out: concentration of Compound 1 in the rat plasma): 10.4 ng/mL

C[C@]12C=CC(=O)C=C1CC[C@@H]1[C@@H]2[C@@H](O)C[C@@]2(C)[C@H]1CC[C@]2(O)C(=O)CO [Prednisolone, prednisolone]
colon coefficient on Day 8 after modeling compared with the model control group [1]: not statistically significant
histopathological score of colon on Day 8 after modeling compared with the model control group [1]: not statistically significant
body weight change (increase) on Day 8 after modeling as compared to the model group [1]: higher than that for the model group
Concentration of prednisolone in the content, The first half segment of Small intestine ([3]; 0.5 h): 16.66 ± 2.89 nmol/g
Concentration of prednisolone in the content, The last half segment of Small intestine ([3]; 0.5 h): 16.27 ± 3.34 nmol/g
Concentration of prednisolone in the content, The first half segment of Small intestine ([3]; 1 h): 19.20 ± 3.44 nmol/g
Concentration of prednisolone in the content, The last half segment of Small intestine ([3]; 2 h): 19.81 ± 2.77 nmol/g
Concentration of prednisolone in the content, The first half segment of Small intestine ([3]; 3 h): 21.16 ± 2.18 nmol/g
Concentration of prednisolone in the content, The last half segment of Small intestine ([3]; 3 h): 20.47 ± 3.08 nmol/g
Concentration of prednisolone in the content, The first half segment of Small intestine ([3]; 4 h): 17.38 ± 3.04 nmol/g
Concentration of prednisolone in the content, The last half segment of Small intestine ([3]; 4 h): 13.27 ± 2.09 nmol/g
Concentration of prednisolone in the content, The first half segment of Small intestine ([3]; 5 h): 7.34 ± 1.38 nmol/g
Concentration of prednisolone in the content, The last half segment of Small intestine ([3]; 5 h): 6.94 ± 1.35 nmol/g
Concentration of prednisolone in the content, The first half segment of Small intestine ([3]; 6 h): 0.36 ± 0.05 nmol/g
Concentration of prednisolone in the content, The last half segment of Small intestine ([3]; 6 h): 0.32 ± 0.06 nmol/g
Concentration of prednisolone in the content, The last half segment of Small intestine ([3]; 8 h): 0.04 ± 0.01 nmol/g
Cmax value of prednisolone in the content, Stomach ([3]; po, 5 mg/kg): 370.53 nmol/g
Cmax value of prednisolone in the content, The first half segment of Small intestine ([3]; po, 5 mg/kg): 51.92 nmol/g
Cmax value of prednisolone in the content, The first third segment (including cecum) of Colon ([3]; po, 5 mg/kg): 0.70 nmol/g
Cmax value of prednisolone in the content, The last half segment of Small intestine ([3]; po, 5 mg/kg): 22.05 nmol/g
Cmax value of prednisolone in the content, The last two thirds segment of Colon ([3]; po, 5 mg/kg): 0.14 nmol/g
